Assays:
alcohol preferring rats [1] = assay: Alcohol Preferring Rats, Study A: Chronic Administration (14 days); assay type: in vivo, rat; settings: 30 mg/kg once a day
Method: (§1) Adult male selectively-bred alcohol preferring rats were used in this study. The selectively bred alcohol preferring rats are widely used to study the suppressant effects of compounds on voluntary alcohol intake (Faren et al. 2000; Rezvani et al, 1990, 1991, 1992a, 1992b, 1999, 2000, 2002; 2003; Murphy et al, 1988; Overstreet et al., 1992, 1999; Li and McBride, 1995).
(§2) The rats were housed individually under a constant room temperature of 22±1° C. and 12:12 light-dark cycle (7:00-19:00, dark). Animals were fed Agway Prolab Rat/Mouse/Hamster 3000 formula and water ad libitum.
(§3) Alcohol intake was determined using a standard two-bottle choice method (Murphy et al. 1988; McBride et al. 1990; Rezvani et al. 1990, 1991, 1993, 1995, 1997, Rezvani et al., 2007a,b; Rezvani and Grady, 1994). Animals were first given free access to water in a graduated Richter tube for 1 day. Next, they were given access to only a solution of 10% (v/v) ethanol for 3 consecutive days. During this period the animals became accustomed to drinking from Richter tubes and to the taste and pharmacological effects of alcohol. Thereafter, the animals were given free access to both water and a solution of 10% alcohol for 4 consecutive weeks and throughout of the study. The animals continued to have free access to food. Water and alcohol intake were recorded at 6 and 24 hour.
After establishment of a reliable baseline for alcohol, and water intake, the animals were randomly assigned to a treatment regimen. The animals were administered once a day, via gavage, either vehicle (0.5% methylcellulose) or compound of formula (I-A) (at 30 mg/kg) or naltrexone (at 20 mg/kg) for 14 consecutive days. A group of 6-7 animals was used for each treatment. Alcohol and water intake was recorded at 6 hrs and 24 hrs after administration.
(§4) The results are presented as a means ±SEM. Alcohol intake (g/kg) was calculated by multiplying the volume of alcohol consumed in ml by 10% and 0.7893 (ethanol density)/body weight in kg. Alcohol preference, expressed as percentage was calculated as (volume of alcohol consumed in ml/total fluid intake in ml)×100 (Rezvani and Grady, 1994; Rezvani et al., 2007a). Statistical differences between drug-treated and control groups was determined by using ANOVA and Tukey Student's t test for multiple comparison.
The results from Study A provide a measure of whether or not the animals develop tolerance to the suppressant effects of the test compound following a chronic treatment. In Tables 5-8 below, the abbreviation “(I-A)” stands for the compound of formula (I-A), the abbreviation “Naltx” stands for naltrexone, and the abbreviation “EtOH” stands for ethanol.

alcohol preferring rats [2] = assay: Alcohol Preferring Rats, Study B: Post-Deprivation Effect; assay type: in vivo, rat; settings: 30 mg/kg; for % EtOH / Alcohol: 45 min before re-exposure to alcohol after 72 hours deprivation
Method: as §1, §2, §3
Following Study A, the rats were maintained on alcohol for 15 days without drug. On day 16 post-gavage, rats were put on food and water only for 72 hours. On the next day, 45 min before re-exposure to alcohol, the rats were treated with vehicle (0.5% methylcellulose), naltrexone (at 20 mg/kg) or compound of formula (I-A) (at 30-mg/kg). Alcohol intake was then measured at 1, 3, 6 and 24 hr after exposure.
as §4, with “means.” for “means ±SEM.”
The results from Study B provide a measure of the effectiveness of the test compound to suppress post-deprivation-induced craving for alcohol.

Cc1cccc2cccc(CN3CCC4(CC3)C(=O)N(C[C@H](O)CN)CN4c3ccc(F)cc3)c12 [Cmpd (I-A), 3-(3-amino-2-(R)-hydroxy-propyl)-1-(4-fluoro-phenyl)-8-(8-methyl-naphthalen-1-ylmethyl)-1,3,8-triazaspiro[4.5]decan-4-one]
Alcohol Intake (alcohol preferring rats [1]; gavage, Day 1, 6 Hour Intake): 1.31 g/kg
Alcohol Preference (alcohol preferring rats [1]; gavage, Day 1, 6 Hour Intake): 62 % EtOH
Alcohol Intake (alcohol preferring rats [1]; gavage, Day 1, 24 Hour Intake): 4.04 g/kg
Alcohol Preference (alcohol preferring rats [1]; gavage, Day 1, 24 Hour Intake): 72 % EtOH
Alcohol Intake (alcohol preferring rats [1]; gavage, Day 2, 6 Hour Intake): 1.54 g/kg
Alcohol Preference (alcohol preferring rats [1]; gavage, Day 2, 6 Hour Intake): 48 % EtOH
Alcohol Intake (alcohol preferring rats [1]; gavage, Day 2, 24 Hour Intake): 3.71 g/kg
Alcohol Preference (alcohol preferring rats [1]; gavage, Day 2, 24 Hour Intake): 56 % EtOH
Alcohol Intake (alcohol preferring rats [1]; gavage, Day 3, 6 Hour Intake): 1.71 g/kg
Alcohol Preference (alcohol preferring rats [1]; gavage, Day 3, 6 Hour Intake): 53 % EtOH
Alcohol Intake (alcohol preferring rats [1]; gavage, Day 3, 24 Hour Intake): 3.39 g/kg
Alcohol Preference (alcohol preferring rats [1]; gavage, Day 3, 24 Hour Intake): 54 % EtOH
Alcohol Intake (alcohol preferring rats [1]; gavage, Day 4, 6 Hour Intake): 1.24 g/kg
Alcohol Preference (alcohol preferring rats [1]; gavage, Day 4, 6 Hour Intake): 52 % EtOH
Alcohol Intake (alcohol preferring rats [1]; gavage, Day 4, 24 Hour Intake): 2.68 g/kg
Alcohol Preference (alcohol preferring rats [1]; gavage, Day 4, 24 Hour Intake): 50 % EtOH
Alcohol Intake (alcohol preferring rats [1]; gavage, Day 5, 6 Hour Intake): 1.54 g/kg
Alcohol Preference (alcohol preferring rats [1]; gavage, Day 5, 6 Hour Intake): 39 % EtOH
Alcohol Intake (alcohol preferring rats [1]; gavage, Day 5, 24 Hour Intake): 2.97 g/kg
Alcohol Preference (alcohol preferring rats [1]; gavage, Day 5, 24 Hour Intake): 47 % EtOH
Alcohol Intake (alcohol preferring rats [1]; gavage, Day 6, 6 Hour Intake): 1.04 g/kg
Alcohol Preference (alcohol preferring rats [1]; gavage, Day 6, 6 Hour Intake): 60 % EtOH
Alcohol Intake (alcohol preferring rats [1]; gavage, Day 6, 24 Hour Intake): 2.99 g/kg
Alcohol Preference (alcohol preferring rats [1]; gavage, Day 6, 24 Hour Intake): 59 % EtOH
Alcohol Intake (alcohol preferring rats [1]; gavage, Day 7, 6 Hour Intake): 1.34 g/kg
Alcohol Preference (alcohol preferring rats [1]; gavage, Day 7, 6 Hour Intake): 65 % EtOH
Alcohol Intake (alcohol preferring rats [1]; gavage, Day 7, 24 Hour Intake): 3.60 g/kg
Alcohol Preference (alcohol preferring rats [1]; gavage, Day 7, 24 Hour Intake): 76 % EtOH
Alcohol Intake (alcohol preferring rats [1]; gavage, Day 8, 6 Hour Intake): 1.63 g/kg
Alcohol Preference (alcohol preferring rats [1]; gavage, Day 8, 6 Hour Intake): 61 % EtOH
Alcohol Intake (alcohol preferring rats [1]; gavage, Day 8, 24 Hour Intake): 3.97 g/kg
Alcohol Preference (alcohol preferring rats [1]; gavage, Day 8, 24 Hour Intake): 70 % EtOH
Alcohol Intake (alcohol preferring rats [1]; gavage, Day 9, 6 Hour Intake): 1.84 g/kg
Alcohol Preference (alcohol preferring rats [1]; gavage, Day 9, 6 Hour Intake): 67 % EtOH
Alcohol Intake (alcohol preferring rats [1]; gavage, Day 9, 24 Hour Intake): 3.78 g/kg
Alcohol Preference (alcohol preferring rats [1]; gavage, Day 9, 24 Hour Intake): 68 % EtOH
Alcohol Intake (alcohol preferring rats [1]; gavage, Day 10, 6 Hour Intake): 1.38 g/kg
Alcohol Preference (alcohol preferring rats [1]; gavage, Day 10, 6 Hour Intake): 72 % EtOH
Alcohol Intake (alcohol preferring rats [1]; gavage, Day 10, 24 Hour Intake): 3.00 g/kg
Alcohol Preference (alcohol preferring rats [1]; gavage, Day 10, 24 Hour Intake): 73 % EtOH
Alcohol Intake (alcohol preferring rats [1]; gavage, Day 11, 6 Hour Intake): 1.17 g/kg
Alcohol Preference (alcohol preferring rats [1]; gavage, Day 11, 6 Hour Intake): 67 % EtOH
Alcohol Intake (alcohol preferring rats [1]; gavage, Day 11, 24 Hour Intake): 2.86 g/kg
Alcohol Preference (alcohol preferring rats [1]; gavage, Day 11, 24 Hour Intake): 81 % EtOH
Alcohol Intake (alcohol preferring rats [1]; gavage, Day 12, 6 Hour Intake): 1.07 g/kg
Alcohol Preference (alcohol preferring rats [1]; gavage, Day 12, 6 Hour Intake): 51 % EtOH
Alcohol Intake (alcohol preferring rats [1]; gavage, Day 12, 24 Hour Intake): 3.03 g/kg
Alcohol Preference (alcohol preferring rats [1]; gavage, Day 12, 24 Hour Intake): 69 % EtOH
Alcohol Intake (alcohol preferring rats [1]; gavage, Day 13, 6 Hour Intake): 0.96 g/kg
Alcohol Preference (alcohol preferring rats [1]; gavage, Day 13, 6 Hour Intake): 45 % EtOH
Alcohol Intake (alcohol preferring rats [1]; gavage, Day 13, 24 Hour Intake): 2.67 g/kg
Alcohol Preference (alcohol preferring rats [1]; gavage, Day 13, 24 Hour Intake): 67 % EtOH
Alcohol Intake (alcohol preferring rats [1]; gavage, Day 14, 6 Hour Intake): 0.55 g/kg
Alcohol Preference (alcohol preferring rats [1]; gavage, Day 14, 6 Hour Intake): 28 % EtOH
Alcohol Intake (alcohol preferring rats [1]; gavage, Day 14, 24 Hour Intake): 1.91 g/kg
Alcohol Preference (alcohol preferring rats [1]; gavage, Day 14, 24 Hour Intake): 45 % EtOH
Alcohol Intake (alcohol preferring rats [1]; at 6 and 24 hours, over the course of 14 days): showed a decrease in alcohol intake
Tolerance to the alcohol reducing effects (alcohol preferring rats [1]; over the 14 days of administration): did not develop tolerance
% EtOH (alcohol preferring rats [2]; 1 Hour Post Dosing): 84%
Alcohol (alcohol preferring rats [2]; 1 Hour Post Dosing): 0.39 g/kg
% EtOH (alcohol preferring rats [2]; 3 Hours Post Dosing): 75%
Alcohol (alcohol preferring rats [2]; 3 Hours Post Dosing): 0.72 g/kg
% EtOH (alcohol preferring rats [2]; 6 Hours Post Dosing): 72%
Alcohol (alcohol preferring rats [2]; 6 Hours Post Dosing): 1.48 g/kg
% EtOH (alcohol preferring rats [2]; 24 Hours Post Dosing): 73%
Alcohol (alcohol preferring rats [2]; 24 Hours Post Dosing): 3.72 g/kg
Alcohol intake and preference, post-deprivation (alcohol preferring rats [2]; at 1, 3, 6 and 24 hours post dosing): showed a decrease in alcohol intake and preference
